Results on 1 compound are retold here after US20160220590A1, “Formulations and Dosage Forms of Oxidized Phospholipids” (Vascular Biogenics Ltd., priority 2011, published 2016).

The nature of data set [1]: Stability of VB-201 in Lauroglycol FCC. In kind it is physicochemical. Particulars: over the course of 66 days; data not shown. The text has this: (§1) VB-201 was also found to be stable in Lauroglycol FCC over the course of 66 days (data not shown).
The nature of data set [2]: Aqueous solubility of VB-201. In kind it is physicochemical. Particulars: at each tested pH: 0.1 M HCl (pH 1), 50 mM phosphate buffers (pH 5 and 7). On the procedure: The aqueous solubility of VB-201 was determined by suspending VB-201 in aqueous solutions of 0.1 M HCl (pH 1) or in 50 mM phosphate buffers (pH 5 and 7). After initial hand mixing, the preparations were further mixed by vortexing and bath sonication to try to bring about dissolution of the drug. Optical microscopy was used to examine for the presence of undissolved material. […] Thus, VB-201′ is relatively water-soluble.

For data set [3] the following is noted: oral, daily dosages of 80 mg VB-201 per day or less; cited from earlier work.
A short description of data set [4]: Pharmacokinetic study, single oral dose of 40 mg VB-201 to human subjects. In kind it is in vivo. Particulars: single oral dose 40 mg VB-201, in all subjects. As for the experimental part:
Pharmacokinetic studies were performed using two different VB-201 formulations (formulation 10 of Example 13 and formulation 4 of Example 11). Single oral doses of 40 mg VB-201 were administered to 26 human subjects for each formulation, and the VB-201 plasma concentrations were measured for a period of 144 hours after dosing for each subject.

The nature of data set [5]: Solubility of VB-201 in Lauroglycol FCC. Particulars: in Lauroglycol FCC (propylene glycol laurate). In kind it is physicochemical.
Excerpt: as §1

Data set [6] can be described thus: Solubility of VB-201 in molten PEG6000. The data set is classed as physicochemical. Particulars: 65° C. to 105° C., 30 hours; no detectable VB-201. On the procedure: Nine pieces of caked, non-ground VB-201 were submerged in molten PEG6000 at 65° C. and stirred slowly using a paddle mixer. The mix was held for approximately two hours at this temperature, examined visually for the dissolution state of the VB-201, and three samples of the liquid PEG6000 were then taken for analysis. The temperature was then raised by 10° C. and the process was repeated. The process was repeated in 10° C. steps until the mix reached a final temperature of 105° C. The entire process lasted 30 hours.
After 30 hours and at a temperature of 105° C., the PEG6000 had slowly turned lightly yellow (normal for prolonged heating of PEG6000 in air), yet there was no significant visible dissolution of VB-201 or reduction in size of the VB-201 pieces. After taking the final analytical samples the VB-201 pieces were removed from the melt, dried from PEG6000, and weighed.

Consider `CCCCCCCCCCCCCCCCOCC(COP(=O)([O-])OCC[N+](C)(C)C)OCCCCC(=O)O` (stereo not drawn) [VB-201, 1-hexadecyl-2-(4′-carboxybutyl)-glycero-3-phosphocholine], for which, in data set [1], the “stability in Lauroglycol FCC” value is recorded as “stable”. Also, the “aqueous solubility of VB-201” value in data set [2] is greater than 225 mg/gram. Also, the safety and tolerability entry in data set [3] is given as “safe, well-tolerated”. In data set [4], the “time VB-201 plasma concentrations were above the assay limit of quantification” value is reported as “at least 96 hours”. Moreover, in data set [5], the “solubility of VB-201 in Lauroglycol FCC” value is on record as “at least 255 mg per gram”. Also, in data set [6], the “VB-201 concentration in molten PEG6000” value was less than 0.5 mg/gram.
